Counter-ions that a name gives are not always drawn.
Experiments:
NPY [1] = test: In vivo NPY-antagonism, NPY-induced blood pressure effects in pithed rats; conditions: Rattus norvegicus, iv, 1 min, NPY 10 μg/kg i.v., diastolic blood pressure, read-out: pIC50 (in vivo NPY-antagonism) (converted)
Method: After intubation of the trachea the animals are pithed by introducing a blunt needle through the eye into the spinal bone marrow channel. The animals are ventilated with oxygen-rich ambient air using a respiratory pump (20 strokes/minute). A cannula is inserted in the left carotid artery and the arterial blood pressure is measured using a pressure gauge (Braun Melsungen Combitrans) connected to a recording device. For injection purposes a catheter is placed in the left jugular vein through which heparin is administered (200 IU/kg, i.v.). After the blood pressure has been stabilised, the animals are given 2 bolus injections of NPY (10 μg/kg, i.v.) at intervals of 15 minutes. The average increase in diastolic blood pressure is taken as the reference value (=100%). The test substances are injected in increasing doses (4 to 6 doses) at intervals of 15 minutes. One minute after administration of the test substance, NPY is administered.
The antagonistic effect of the test substances is determined by plotting the percentage inhibition of the NPY-induced blood pressure effects against the logarithm of the concentration of active substance.

NPY [2] = test: NPY-antagonism in vitro, isolated perfused rat kidney; conditions: NPY 1 μM bolus
Method: The abdomen is opened along the centre of the body and the left kidney is removed after the insertion of catheters in the renal artery, renal vein and ureter. The isolated kidney is immediately perfused with a modified Krebs-Ringer solution having the following composition (4 ml/minute):
The perfusion pressure is measured continuously using a pressure gauge. After a 60 minute stabilisation period the perfusion rate is adjusted so as to obtain a perfusion pressure of approximately 100 mm Hg. After a further 30 minutes the experiment is started and NPY (1μM) is administered as a bolus (0.1 ml) at 15 minute intervals until the pressure increase observed reaches a constant value. The compounds to be tested are given in the form of a continuous infusion over a period of 5 minutes and then NPY is injected. After a 30 minute wash-out period the next highest concentration of test substance is investigated. 3 to 5 different concentrations of the particular compound are tested on each occasion. Concentration/activity curves can be obtained by plotting the percentage inhibition of the NPY activity against the logarithm of the concentration (mol/1) of the compound.

human Y1 -receptor = target: T1, human Y1 -receptor (Homo sapiens, UniProt P25929); test: Receptor binding to SK-N-MC cells ([125I]-Bolton-Hunter-NPY displacement); conditions: Table 1
T1 construct: endoge- nously expressing Y1 and Y2 receptors; endogenous in cells; host or cells: SK-N-MC (neuroblastoma) cells
T1 sequence (P25929 1-384): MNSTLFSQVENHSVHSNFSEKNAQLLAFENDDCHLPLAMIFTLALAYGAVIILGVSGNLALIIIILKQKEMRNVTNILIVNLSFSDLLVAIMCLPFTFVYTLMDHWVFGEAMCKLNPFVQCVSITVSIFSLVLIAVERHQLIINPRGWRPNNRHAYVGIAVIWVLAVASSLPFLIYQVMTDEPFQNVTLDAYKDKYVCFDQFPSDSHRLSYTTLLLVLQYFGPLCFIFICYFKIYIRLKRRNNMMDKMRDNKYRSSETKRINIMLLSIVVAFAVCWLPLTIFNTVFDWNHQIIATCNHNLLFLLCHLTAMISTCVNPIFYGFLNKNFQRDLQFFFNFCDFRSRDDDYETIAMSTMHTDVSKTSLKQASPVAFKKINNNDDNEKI
Method: Incubation is ended by centrifuging (10 minutes at 3000×gand […].). After washing once with PBS, the radioactivity of the pellet is measured in a gamma counter. […] The proportion of non-specific binding is defined as that radioactivity which is bound in the presence of 1 μM NPY. The IC50 values of the unlabelled test substances are determined graphically.

NPY induced food intake = test: Food intake in satiated rats after NPY application to the PVN; assay type: in vivo, rat
Method: For these determinations food intake was measured in normal satiated rats after application of NPY to the paraventricular nucleus (PVN) in the presence or absence of the test compound. […] The rats were individually housed in stainless steel cages where water and food were available ad libitum.
Rats under Pentobarbital anaesthesia were stereotactically implanted with a stainless steel double guide cannula targeted bilaterally at the PVNs. Stereotactic coordinates were: -1.8mm caudal, 0.5mm lateral to bregma and 7.0 mm below the skull surface. Injection cannulae extended the guide cannulae by 1 mm. Animals were allowed to recover from surgery for at least 10 days before being used in the experiments. Rats were handled and mock-injected during the […] recovery period to habituate them to the injection procedure.
Animals treated with both test compounds and NPY were treated first with the test compound. Then, 15 min. after PVN infusion of the test compound or vehicle (control) 1 μg of NPY was administered by PVN infusion.
Food intake was measured by placing preweighed pellets into the cages at the time of NPY injection. Pellets were removed from the cage at 2 h post NPY injection. The food intake of animals treated with test compound was calculated as a percentage of the food intake of control animals, i.e., animals treated with vehicle.

| Compound | IC50 (human Y1 -receptor) [nM] | other results |
| --- | --- | --- |
| CN(CCCC(NC(=O)C(c1ccccc1)c1ccccc1)C(=O)NCc1ccc(O)cc1)C(=N)N (racemic) [Compound E, (R,S)-N^5-(Aminoiminomethyl)-N^2-(diphenylacetyl)-N-[(4-hydroxyphenyl)methyl]-N^5-methyl-ornithinamide-hydrochloride] | – | ED50 (NPY [1]): 0.0135 µmol/kg; pIC50 (NPY-antagonism in vitro) (NPY [2]): 8.41 |
| N=C(N)NCCC[C@@H](NC(=O)C(c1ccc(O)cc1)c1ccc(O)cc1)C(=O)NCc1ccc(CNC(N)=O)cc1 [A] | – | % Inhibition of food intake (NPY induced food intake; 30 μg, PVN, 2 h, 1 μg NPY): 32%; Food intake following NPY application (NPY induced food intake; 30 μg, PVN, 2 h, 1 μg NPY): 2.40 g/animal |
| N=C(N)NCCC[C@@H](NC(=O)Nc1ccc(Cl)c(Cl)c1)C(=O)NCc1ccc(CNC(N)=O)cc1 [K] | 1.8 | – |
| Neuropeptide Y [NPY, reference compound] | – | two hour food intake induced by NPY (NPY induced food intake; NPY 1 μg, versus 0.5 g with vehicle): 3.5 g |
| COC(=O)COc1ccc(C(C(=O)N[C@H](CCCNC(=N)N)C(=O)NCc2ccc(CNC(N)=O)cc2)c2ccc(O)cc2)cc1 (stereo partly drawn) [L] | 2.2 | – |
| CN(C)C(=O)NCc1ccc(CNC(=O)[C@@H](CCCNC(=N)N)NC(=O)C(c2ccccc2)c2ccccc2)cc1 [I, (R)-N-[[4-(Dimethylaminocarbonylaminomethyl)phenyl]methyl]-N^2-(diphenylacetyl)-argininamide-bis-(trifluor-acetate)] | 1.5 | – |
| N=C(N)NCCC[C@@H](NC(=O)C(c1ccccc1)c1ccccc1)C(=O)OCc1ccc(CNC(N)=O)cc1 [M, (R)-N^2-(Diphenylacetyl)-arginine-[4-(aminocarbonylamino-methyl)phenyl]methylester-trifluoracetate] | 3 | – |
| CCOC(=O)NC(=O)NCc1ccc(CNC(=O)[C@@H](CCCNC(=N)N)NC(=O)C(c2ccccc2)c2ccccc2)cc1 [H, (R)-N^2-(Diphenylacetyl)-N-[[4-(ethoxycarbonylamino-carbonylaminomethyl)phenyl]methyl]-argininamide-trifluor-acetate] | 1.1 | – |
| COc1ccc2cc(C(=O)N[C@H](CCCNC(=N)N)C(=O)NCc3ccc(CNC(N)=O)cc3)ccc2c1 [N, (R)-N-[[4-(Aminocarbonylaminomethyl)phenyl]methyl]-N^2-(6-methoxy-2-naphthoyl)-argininamide-acetate] | 3.4 | – |

Continued, in another order:

| IC50 (human Y1 -receptor) [nM] | Compound | other results |
| --- | --- | --- |
| 4.5 | N=C(N)NCCC[C@@H](NC(=O)Cc1cc(Cl)c(N)c(Cl)c1)C(=O)NCc1ccc(CNC(N)=O)cc1 [R, (R)-N-[[4-(Aminocarbonylaminomethyl)phenyl]methyl]-N^2-[(4-amino-3,5-dichlorphenyl)acetyl]-argininamide-tri-fluoracetate] | – |
| 4.25 | CCOC(=O)NCc1ccc(CNC(=O)[C@@H](CCCNC(=N)N)NC(=O)C(c2ccccc2)c2ccccc2)cc1 [Q, (R)-N^2-(Diphenylacetyl)-N-[[4-(ethoxycarbonylamino-methyl)phenyl]methyl]-argininamide-trifluoracetate] | ED50 (NPY [1]): 0.162 µmol/kg; pIC50 (NPY-antagonism in vitro) (NPY [2]): 7.77 |
| 28.3 | NC(=O)Cc1ccc(CNC(=O)[C@@H](CCCNc2ncc[nH]2)NC(=O)C(c2ccccc2)c2ccccc2)cc1 [S, (R)-N-[[4-(Aminocarbonylmethyl)phenyl]methyl]-N^2-(diphenylacetyl)-N^5-(1H-imidazol-2-yl)-ornithinamide-hydroiodide] | – |
| 3.45 | N=C(N)NCCC[C@@H](NC(=O)CC(c1ccccc1)c1ccccc1)C(=O)NCc1ccc(CNC(N)=O)cc1 [O, (R)-N-[[4-(Aminocarbonylaminomethyl)phenyl]methyl]-N^2-(3,3-diphenyl-1-oxopropyl)-argininamide] | – |
| 3.5 | CN(Cc1ccc(CNC(N)=O)cc1)C(=O)[C@@H](CCCNC(=N)N)NC(=O)C(c1ccccc1)c1ccccc1 [P, (R)-N-[[4-(Aminocarbonylaminomethyl)phenyl]methyl]-N^2-(diphenylacetyl)-N-methyl-argininamide-acetate] | – |

Source: patent US6114390A, “Amino acid derivatives, pharmaceutical compositions containing these compounds and processes for preparing them” (Karl Thomae GmbH, priority 1997, dated 2000)
